pEC50: −log10 of the molar value. Read-outs that look alike come from different tables or passages of the source.
System: SSTR2 mutants
Assay: SSTRs Gi-mediated cAMP inhibition, GloSensor, HEK293, 5 μM forskolin, 15 min room temperature (SSTR2 mutants)
Type: cell-based, human
Design: Best-fit Bottom, cAMP inhibition / Best-fit Top, cAMP inhibition / Span, cAMP inhibition / Bottom (best-fit value) / Top (best-fit value) / Span (best-fit value) / Span (best-fit) / Bottom (best-fit) / Top (best-fit) / Best-fit Bottom / Best-fit Top / Best-fit Span / Top / Span: scale not given here
Procedure: The levels of the intracellular 3′, 5′-cyclic AMP (cAMP) were measured by the GloSensor cAMP assay (Promega) as described in the previous studies[28],[41] which has been widely used. The human full-length SSTRs and mutants were cloned into the pcDNA3.1+ vector with a HA signal sequence followed by a Flag tag at the N-terminus. HEK293 cells (ATCC, CRL-1573) were seeded into 6-well microplates at a density of 1.0 × 10^6 cells/well and cultured for 24 h at 37 °C with 5% CO2. Cells were then co-transfected with SSTR wild-type or mutants and GloSensor plasmids. After 24 h of transfection, the cells were dissociated with TrypLE™ Express Enzyme (1X) (Thermo Fisher Scientific) and collected by centrifugation at 500 × g for 5 min. Then the collected cells were suspended in Hank’s balanced salt solution [HBSS (Thermo Fisher Scientific)] supplemented with […] (YEASEN), and then the suspension cells were seeded into 96-well plates with 90 μl/well. After incubating at room temperature for 40 min, 5 μM forskolin and ligands diluted in HBSS were added to each well and the plates were incubated at room temperature for 15 min. […] were measured using the Synergy H1 microplate reader (BioTek) and the data presented are means of at least three independent experiments.

`C[C@@H](O)[C@@H]1NC(=O)[C@H](CCCCN)NC(=O)[C@@H](Cc2c[nH]c3ccccc23)NC(=O)[C@H](Cc2ccccc2)NC(=O)[C@@H](NC(=O)[C@H](N)Cc2ccccc2)CSSC[C@@H](C(=O)N[C@H](CO)[C@@H](C)O)NC1=O` [octreotide] was tested, and the “Top (best-fit value)” value (I284A-1, run 1) was 116.3, the pEC50 (I284A-1, run 1, read-out: EC50 (best-fit value)) was 8.87 and the “Bottom (best-fit value)” value (I284A-2, run 2) was -11.95. For the same molecule, the “LogEC50 (best-fit value)” value (I284A-2, run 2) was -9.363, the “Span (best-fit value)” value (I284A-2, run 2) was 136.5 and the “Top (best-fit value)” value (I284A-2, run 2) was 124.6. For the same molecule, the pEC50 (I284A-2, run 2, read-out: EC50 (best-fit value)) was 9.36, the “Bottom (best-fit value)” value (I284A-3, run 3) was -6.083 and the “LogEC50 (best-fit value)” value (I284A-3, run 3) was -8.813. For the same molecule, the “Span (best-fit value)” value (I284A-3, run 3) was 75.58, the “Top (best-fit value)” value (I284A-3, run 3) was 69.5 and the pEC50 (I284A-3, run 3, read-out: EC50 (best-fit value)) was 8.81. The “Impact on Gi protein pathway” value (I284ECL3A and K291(7.32)A) was “relatively small”, the “Best-fit Bottom” value (K291A-1) was -13.76 and the “Best-fit Span” value (K291A-1) was 86.2. For the same molecule, the “Best-fit Top” value (K291A-1) was 72.44, the LogEC50 (K291A-1) was -8.384 and the pEC50 (K291A-1, read-out: EC50) was 8.40. For the same molecule, the “Best-fit Bottom” value (K291A-2) was -3.629, the “Best-fit Span” value (K291A-2) was 91.53 and the “Best-fit Top” value (K291A-2) was 87.9. For the same molecule, the LogEC50 (K291A-2) was -8.328, the pEC50 (K291A-2, read-out: EC50) was 8.33 and the “Best-fit Bottom” value (K291A-3) was 3.692. For the same molecule, the “Best-fit Span” value (K291A-3) was 104.2, the “Best-fit Top” value (K291A-3) was 107.9 and the LogEC50 (K291A-3) was -8.123. The pEC50 (K291A-3, read-out: EC50) was 8.12, the “Best-fit Bottom” value (L290A-1) was 32.91 and the “Best-fit Span” value (L290A-1) was 84.91. The “Best-fit Top” value (L290A-1) was 117.8, the LogEC50 (L290A-1) was -9.231 and the pEC50 (L290A-1, read-out: EC50) was 9.23. For the same molecule, the “Best-fit Span” value (L290A-2) was 90.85, the “Best-fit Top” value (L290A-2) was 95.5 and the LogEC50 (L290A-2) was -9.519. For the same molecule, the “Best-fit Bottom” value (L290A-3) was 2.997, the “Best-fit Span” value (L290A-3) was 94.23 and the “Best-fit Top” value (L290A-3) was 97.22. The LogEC50 (L290A-3) was -9.438, the pEC50 (L290A-3, read-out: EC50) was 9.44 and the “Gi signaling of mutant” value (N276(6.55)A) was “still exerted Gi signaling activation”. For the same molecule, the “Bottom (best-fit)” value (N276A-1) was -14.21, the “LogEC50 (best-fit)” value (N276A-1) was -7.981 and the “Span (best-fit)” value (N276A-1) was 75.87. For the same molecule, the “Top (best-fit)” value (N276A-1) was 61.65, the pEC50 (N276A-1, read-out: EC50 (best-fit)) was 7.98 and the “Bottom (best-fit)” value (N276A-2) was 0.8581. For the same molecule, the “LogEC50 (best-fit)” value (N276A-2) was -7.561, the “Span (best-fit)” value (N276A-2) was 112.9 and the “Top (best-fit)” value (N276A-2) was 113.7. The pEC50 (N276A-2, read-out: EC50 (best-fit)) was 7.56, the “Bottom (best-fit)” value (N276A-3) was 2.316 and the “LogEC50 (best-fit)” value (N276A-3) was -7.587. The “Span (best-fit)” value (N276A-3) was 109.8, the “Top (best-fit)” value (N276A-3) was 112.1 and the pEC50 (N276A-3, read-out: EC50 (best-fit)) was 7.59. The “Bottom (best-fit)” value (P220A-1) was 19.71, the “LogEC50 (best-fit)” value (P220A-1) was -9.136 and the “Span (best-fit)” value (P220A-1) was 47.88. For the same molecule, the “Top (best-fit)” value (P220A-1) was 67.58, the pEC50 (P220A-1, read-out: EC50 (best-fit)) was 9.14 and the “Bottom (best-fit)” value (P220A-2) was 10.44. For the same molecule, the “LogEC50 (best-fit)” value (P220A-2) was -8.311, the “Span (best-fit)” value (P220A-2) was 101.1 and the “Top (best-fit)” value (P220A-2) was 111.6. The pEC50 (P220A-2, read-out: EC50 (best-fit)) was 8.31, the “Bottom (best-fit)” value (P220A-3) was 7.137 and the “LogEC50 (best-fit)” value (P220A-3) was -8.347. The “Span (best-fit)” value (P220A-3) was 101.3, the “Top (best-fit)” value (P220A-3) was 108.4 and the pEC50 (P220A-3, read-out: EC50 (best-fit)) was 8.35. For the same molecule, the “Bottom (best-fit value)” value (P286A-1, run 1) was -1.561, the “LogEC50 (best-fit value)” value (P286A-1, run 1) was -9.311 and the “Span (best-fit value)” value (P286A-1, run 1) was 110.5. For the same molecule, the “Top (best-fit value)” value (P286A-1, run 1) was 108.9, the pEC50 (P286A-1, run 1, read-out: EC50 (best-fit value)) was 9.31 and the “Bottom (best-fit value)” value (P286A-2, run 2) was -0.685. For the same molecule, the “LogEC50 (best-fit value)” value (P286A-2, run 2) was -9.269, the “Span (best-fit value)” value (P286A-2, run 2) was 107.2 and the “Top (best-fit value)” value (P286A-2, run 2) was 106.5. For the same molecule, the pEC50 (P286A-2, run 2, read-out: EC50 (best-fit value)) was 9.27, the “Bottom (best-fit value)” value (P286A-3, run 3) was -0.6493 and the “LogEC50 (best-fit value)” value (P286A-3, run 3) was -9.076. The “Span (best-fit value)” value (P286A-3, run 3) was 92.48, the “Top (best-fit value)” value (P286A-3, run 3) was 91.83 and the pEC50 (P286A-3, run 3, read-out: EC50 (best-fit value)) was 9.08. The “Best-fit Bottom” value (S279A-1) was 9.876, the “Best-fit Span” value (S279A-1) was 98.05 and the “Best-fit Top” value (S279A-1) was 107.9. The LogEC50 (S279A-1) was -9.015, the pEC50 (S279A-1, read-out: EC50) was 9.02 and the “Best-fit Span” value (S279A-2) was 101.7. For the same molecule, the “Best-fit Top” value (S279A-2) was 106.6, the LogEC50 (S279A-2) was -8.897 and the pEC50 (S279A-2, read-out: EC50) was 8.90. For the same molecule, the “Best-fit Bottom” value (S279A-3) was 4.156, the “Best-fit Span” value (S279A-3) was 86.31 and the “Best-fit Top” value (S279A-3) was 90.47. For the same molecule, the LogEC50 (S279A-3) was -8.897, the “Bottom (best-fit value)” value (S285A-1, run 1) was 7.122 and the “LogEC50 (best-fit value)” value (S285A-1, run 1) was -9.176. The “Span (best-fit value)” value (S285A-1, run 1) was 90.01, the “Top (best-fit value)” value (S285A-1, run 1) was 97.13 and the pEC50 (S285A-1, run 1, read-out: EC50 (best-fit value)) was 9.18. The “Bottom (best-fit value)” value (S285A-2, run 2) was 7.037, the “LogEC50 (best-fit value)” value (S285A-2, run 2) was -9.15 and the “Span (best-fit value)” value (S285A-2, run 2) was 69.44. For the same molecule, the “Top (best-fit value)” value (S285A-2, run 2) was 76.48, the pEC50 (S285A-2, run 2, read-out: EC50 (best-fit value)) was 9.15 and the “Bottom (best-fit value)” value (S285A-3, run 3) was -3.857. The “LogEC50 (best-fit value)” value (S285A-3, run 3) was -9.167, the “Span (best-fit value)” value (S285A-3, run 3) was 92.79 and the “Top (best-fit value)” value (S285A-3, run 3) was 88.94. The pEC50 (S285A-3, run 3, read-out: EC50 (best-fit value)) was 9.17 and the “Best-fit Bottom, cAMP inhibition” value (SSTR2 I195A-1, run 1) was 1.138.

From PMC9944328 (Nature Communications, 2023)
